Tests used:
[1] = Apparent pKa of LNPs comprising the ionizable lipid (Table 6); settings: standard formulation 50:10:38.5:1.5
[2] = Size distribution, polydispersity and Z-potential of LNPs by dynamic light scattering (Malvern Zetasizer); format: physicochemical; settings: LNPs, standard formulation 50:10:38.5:1.5; DLS
Method: (§1) The LNP solution was then adjusted to a final concentration of mRNA of 100 µg/ml. Size distribution, polydispersity and Z-potential were measured by dynamic light scattering (DLS) using Malvern Zetasizer Advance Lab Blue Label. RNA encapsulation was assessed by Quant-IT® Ribogreen following the manufacturer's instructions.

[3] = RNA encapsulation efficiency of LNPs by Quant-IT Ribogreen; format: physicochemical; settings: for Encaps. efficiency (%): LNPs with luciferase mRNA, ionizable lipid:non-cationic lipid:sterol:PEG-modified lipid 50:10:38.5:1.5, percentage of RNA entrapped in the LNP
Method: The mRNA aqueous solution was then carefully added to the ethanol solution, and the resulted solution was homogenized by pipetting up and down for 4-5 times. The resulting LNPs were immediately diluted 1:1 with Tris buffer and dialyzed overnight against Tris buffer containing 15% sucrose. The resulting LNP solution was then collected, and the encapsulated mRNA was assessed by Quant-IT® Ribogreen (Invitrogen R11490) following the manufacturer's instructions.
as §1

Apparent pKa [1] | P.D.I. [2] | Particle size/ Ø (nm) [2] [nm] | Z Potential (± D.E.) [mV] [2] [mV] | Encaps. efficiency (%) [3] [%] | SMILES | Encaps. efficiency ([3]; Table 8, LNP 50:10:38.5:1.5, luciferase mRNA) [%]
5.84 | 0.11 | 185.3 | -8.34 | 65.37 | CCCCCCCCCCCCC(CCCCCCCCCC)COC(=O)CCSCCC(NC(=O)C(CCCCCC)CCCCCCCC)C(=O)NC1CCN(C)CC1 (centres unmarked) [VC-LC-0428] | –
6.18 | 0.14 | 173 | -10.85 | 29.52 | CCCCCCCCC(CCCCCC)C(=O)NC(CCSCCC(=O)OCCCCCC)C(=O)NCCCn1ccnc1 (centres unmarked) [VC-LC-0268] | –
6.09 | 0.15 | 193.3 | -13.45 | 57.64 | CCCCCCCCCCCCCCOC(=O)CCSCC(CC(=O)NCCCn1ccnc1)C(=O)OC(CCCCCCCC)CCCCCCCC (centres unmarked) [VC-LC-0299] | –
– | 0.26 | 179 | -20.85 | 83.35 | CCCCCCCCC(CCCCCC)C(=O)NC(CCSCCC(=O)OCC(CC)CCCC)C(=O)NC1CCN(C)CC1 (centres unmarked) [VC-LC-0212] | –
– | 0.35 | 206.7 | -6.47 | 85.48 | CCCCCCCCC(CCCCCC)C(=O)NC(CCSCCC(=O)OCC(CC)CCCC)C(=O)NCCN1CCN(C)CC1 (centres unmarked) [VC-LC-0181] | –
– | 0.22 | 262.2 | 1.39 | 90.54 | CCCCCCCCC(CCCCCC)C(=O)NC(CCSCCC(=O)OCC(CC)CCCC)C(=O)NCCCN(CCO)CCO (centres unmarked) [VC-LC-0197] | –
– | 0.26 | – | -23.20 | 54.05 | CCCCCCCCCCCCCCCCCCCCCCOC(=O)CCSCC(CC(=O)NCCCn1ccnc1)C(=O)OC(CCCCCCCC)CCCCCCCC (centres unmarked) [VC-LC-0304] | –
– | 0.16 | 124.7 | 3.68 | 97.90 | CCCCCCCCC(CCCCCC)COC(=O)C(CSCCC(=O)OCCCCCCCC(C)C)CC(=O)NC1CCN(C)CC1 (centres unmarked) [VC-LC-0526] | –
– | 0.11 | 164.8 | -24.55 | 42.53 | CCCCCCCCC(CCCCCC)C(=O)NC(CCSCCC(=O)OCC(CC)CCCC)C(=O)NCCCN1CCOCC1 (centres unmarked) [VC-LC-0166] | –
– | 0.22 | 217.1 | -2.72 | 91.18 | CCCCCCCCCCCCOC(=O)CCSCCC(NC(=O)C(CCCCCC)CCCCCCCC)C(=O)NCCN1CCN(C)CC1 (centres unmarked) [VC-LC-0182] | –
– | 0.19 | 158.6 | 9.15 | 98.54 | CCCCCCCCCCCCCCCCOC(=O)CCSCC(CC(=O)NC1CCN(C)CC1)C(=O)OCC(CCCCCC)CCCCCCCC (centres unmarked) [VC-LC-0531] | –

SMILES | Apparent pKa [1] | P.D.I. [2] | Particle size/ Ø (nm) [2] [nm] | Z Potential (± D.E.) [mV] [2] [mV] | Encaps. efficiency (%) [3] [%] | Encaps. efficiency ([3]; Table 8, LNP 50:10:38.5:1.5, luciferase mRNA) [%]
CCCCCCCCCCCCCCCCOC(=O)CCSCCC(NC(=O)C(CCCCCC)CCCCCCCC)C(=O)NC1CCN(C)CC1 (centres unmarked) [VC-LC-0216] | – | 0.35 | – | -20.53 | 52.13 | –
CCCCCCCC/C=C\CCCCCCCCOC(=O)CCSCCC(C(=O)NC1CCN(C)CC1)C(=O)OC(CCCCCCCC)CCCCCCCC (centres unmarked) [VC-LC-0443] | – | 0.13 | 181.3 | -2.92 | 86.01 | 86.01
CCCCCCCC#CCOC(=O)CCSCCC(NC(=O)CCCCCCC/C=C\CCCCCCCC)C(=O)NCCCN1CCOCC1 (centres unmarked) [VC-LC-0354] | – | 0.13 | 234.3 | -0.57 | 68.28 | –
CCCCCCCCCCCCCCCCCC(=O)NC(CCSCCC(=O)OCCCCCCCCCCCCC)C(=O)NC1CCN(C)CC1 (centres unmarked) [VC-LC-0435] | – | 0.2 | 182.6 | 8.58 | 99.22 | –

From patent EP4371976B1, “IONIZABLE LIPIDS AND LIPID NANOPARTICLES CONTAINING THEREOF” (Certest Biotec, S.L., priority 2022, dated 2024)
